Results published in US20110280940A1, “Di-Vanilloyl And Tri-Vanilloyl Derivatives For Use In Anti-Cancer Therapy” (priority 2008, published 2011).
Read-outs that look alike come from different tables or passages of the source.

Key:
[1] = system: A549 non-small-cell-lung cancer cells; assay: MTT colorimetric assay, overall cell growth, A549; type: cell-based, human; settings: 72 hours of incubation, read-out: In Vitro IC50 Growth Inhibitory Values, A549
Excerpt: (§1) The amount of formazan obtained at the end of the experiment, measured by means of a spectrophotometer, is directly proportional to the number of living cells. Optical density determination thus enabled a quantitative measurement of the effect of the investigated compounds as compared to the control condition (untreated cells) and/or to other reference compounds. Eleven human cancer cell lines and one mouse melanoma cell-line (B16F10) described in Table 2 were used in the following MTT tests. These cancer cell lines cover seven histological cancer types including prostate (PC3), glioma (Hs683, T98G, U373, melanoma (VM21, VM28), non-small-cell-lung (A549), breast (MCF-7), colon (LoVo) and oesophageal (OE21, OE33) cancers. […] Each cell line was seeded in its appropriate culture medium. The detailed experimental procedure was the following: after a 24-hour period of incubation at 37° C., the culture medium was replaced by 100 μl of fresh medium in which the tested compound was previously dissolved, at the following molar concentrations: 10^-8 […] and 10^-4 M. Each experiment was performed in sestuplicates (6 times). After 72 hours of incubation at 37° C. with (experimental conditions) or without (control condition) the compound to be tested, the medium was replaced by 100 μl MTT dissolved in RPMI (1640 without phenol red) at a concentration of 0.5 or 1 mg/ml. The micro-wells were subsequently incubated during 3 hours and a half at 37° C. and centrifuged at 1300 rpm during 10 minutes. MTT was removed and formazan crystals formed were dissolved in 100 μl DMSO. The micro-wells were shaken for 5 minutes and read on a spectrophotometer at wavelengths of 570 nm (maximal formazan absorbance). For each experimental condition, the mean optical density was calculated, allowing the determination of the percentage of remaining living cells in comparison to the control. […] The origin of all the cell lines we used, along with their biological characteristics, and the validation procedures of the MTT colorimetric assay as employed here are fully detailed in Van Quaquebeke et al., 2005, J Med Chem 48:849-856; […]

[2] = system: MCF-7 breast cancer cells; assay: MTT colorimetric assay, overall cell growth, MCF-7; type: cell-based, human; settings: 72 hours of incubation, read-out: In Vitro IC50 Growth Inhibitory Values, MCF-7
Excerpt: as §1

[3] = system: PC-3 prostate cancer cells; assay: MTT colorimetric assay, overall cell growth, PC-3; type: cell-based, human; settings: 72 hours of incubation, read-out: In Vitro IC50 Growth Inhibitory Values, PC-3
Excerpt: as §1

VM21 melanoma cells = assay: MTT colorimetric assay, overall cell growth, VM21; type: cell-based, human; settings: MTT, 72 hours of incubation, read-out: In Vitro IC50 Growth Inhibitory Values, VM21
Excerpt: as §1

[4] = system: OE21 oesophageal cancer cells; assay: MTT colorimetric assay, overall cell growth, OE21; type: cell-based, human; settings: 72 hours of incubation, read-out: In Vitro IC50 Growth Inhibitory Values, OE21
Excerpt: as §1

T98G glioma cells = assay: MTT colorimetric assay, overall cell growth, T98G; type: cell-based, human; settings: 72 hours of incubation, read-out: In Vitro IC50 Growth Inhibitory Values, T98G
Excerpt: as §1

[5] = system: OE33 oesophageal cancer cells; assay: MTT colorimetric assay, overall cell growth, OE33; type: cell-based, human; settings: 72 hours of incubation, read-out: In Vitro IC50 Growth Inhibitory Values, OE33
Excerpt: as §1

[6] = system: Eleven human cancer cell lines; assay: MTT colorimetric assay, across the eleven human cancer cell lines; type: cell-based; settings: mean ± SEM over the 11 human cancer cell lines, MTT, 72 hours; read-out: In Vitro IC50 Growth Inhibitory Values, m ± SEM
Excerpt: as §1

VM48 melanoma cells = assay: MTT colorimetric assay, overall cell growth, VM48; type: cell-based, human; settings: MTT, 72 hours of incubation, read-out: In Vitro IC50 Growth Inhibitory Values, VM48
LoVo colon cancer cells = assay: MTT colorimetric assay, overall cell growth, LoVo; type: cell-based, human; settings: 72 hours of incubation, read-out: In Vitro IC50 Growth Inhibitory Values, LoVo
Excerpt: as §1

[7] = system: B16F10 melanoma cell-line; assay: MTT colorimetric assay, overall cell growth, B16F10; type: cell-based, mouse; settings: 72 hours of incubation, read-out: In Vitro IC50 Growth Inhibitory Values, B16F10
Excerpt: as §1

Hs683 glioma cells = assay: MTT colorimetric assay, overall cell growth, Hs683; type: cell-based, human; settings: 72 hours of incubation, read-out: In Vitro IC50 Growth Inhibitory Values, Hs683
Excerpt: as §1

U373 glioblastoma cells = assay: MTT colorimetric assay, overall cell growth, U373; type: cell-based, human; settings: 72 hours of incubation, read-out: In Vitro IC50 Growth Inhibitory Values, U373
Excerpt: as §1

| IC50 (VM21 melanoma cells; Homo sapiens) [µM] | IC50 (VM48 melanoma cells; Homo sapiens) [µM] | IC50 ([3]; Homo sapiens) [µM] | SMILES | IC50 [1] [µM] | IC50 [2] [µM] | IC50 [3] [µM] | IC50 (VM21 melanoma cells) [µM] | IC50 [4] [µM] | IC50 (T98G glioma cells) [µM] | IC50 [5] [µM] | IC50 [6] [µM] | IC50 (VM48 melanoma cells) [µM] | IC50 (LoVo colon cancer cells) [µM] | IC50 [7] [µM] | IC50 (Hs683 glioma cells) [µM] | IC50 (U373 glioblastoma cells) [µM] |
| --- | --- | --- | --- | --- | --- | --- | --- | --- | --- | --- | --- | --- | --- | --- | --- | --- |
| – | – | – | COc1cc(C(=O)NC2CCC(NC(=O)c3ccc(O)c(OC)c3)CC2)ccc1O (mixture of isomers) [DLT40, N,N′-cis/trans-cyclohexane-1,4-diyl bis-(4-hydroxy-3-methoxybenzamide)] | > 100 | 80 | 87 | > 100 | 81 | > 100 | > 100 | > 100 | 98 | 78 | 36 | 95 | > 100 |
| – | – | – | COc1cc(C(=O)O[C@H]2CCCCC[C@@H]2OC(=O)c2ccc(O)c(OC)c2)ccc1O (relative stereo) [DLT22, S,S-trans-cycloheptane-1,2-diyl bis-(4-hydroxy-3-methoxybenzoate)] | 46 | 69 | 88 | 51 | 49 | 24 | 55 | 52 | 50 | 44 | 10 | 44 | 54 |
| – | – | – | O=C(O[C@@H]1CCCC[C@H]1OC(=O)c1ccc(O)c(Cl)c1)c1ccc(O)c(Cl)c1 (relative stereo) [DLT30, R,R-trans-cyclohexane-1,2-diyl bis-(4-hydroxy-3-chlorobenzoate)] | 18 | 21 | 44 | 53 | 41 | 11 | 34 | 32 | 58 | 26 | 1 | 10 | 31 |
| – | – | – | COc1cc(C(=O)O[C@H]2CCC[C@@H]2OC(=O)c2ccc(O)c(OC)c2)ccc1O (stereo in doubt) [DLT15, S,S-trans-cyclopentane-1,2-diyl bis-(4-hydroxy-3-methoxybenzoate)] | 30 | 23 | 26 | 35 | 28 | 30 | 28 | 28 | 26 | 28 | 6 | 25 | 30 |
| – | – | – | COc1cc(C(=O)O[C@@H]2CCC[C@H]2OC(=O)c2ccc(O)c(OC)c2)ccc1O (stereo in doubt) [DLT16, R,R-trans-cyclopentane-1,2-diyl bis-(4-hydroxy-3-methoxybenzoate)] | 21 | 25 | 25 | 26 | 27 | 32 | 28 | 27 | 29 | 29 | 4 | 22 | 31 |
| – | – | – | COc1cc(C(=O)O[C@H]2CC[C@H](OC(=O)c3ccc(O)c(OC)c3)C2)ccc1O (stereo in doubt) [DLT18, S,S-trans-cyclopentane-1,3-diyl bis-(4-hydroxy-3-methoxybenzoate)] | 43 | 44 | 43 | > 100 | 53 | > 100 | 64 | > 100 | 59 | 41 | 30 | 46 | > 100 |
| – | – | – | COc1cc(C(=O)O[C@@H]2CC[C@@H](OC(=O)c3ccc(O)c(OC)c3)C2)ccc1O (stereo in doubt) [DLT19, R,R-trans-cyclopentane-1,3-diyl bis-(4-hydroxy-3-methoxybenzoate)] | 32 | 25 | 42 | 37 | 34 | 31 | 36 | 34 | 53 | 18 | 26 | 30 | 35 |
| – | – | – | O=C(O[C@H]1CCCC[C@@H]1OC(=O)c1cc(O)c(O)c(O)c1)c1cc(O)c(O)c(O)c1 (stereo in doubt) [DLT33, S,S-trans-cyclohexane 1,2-diyl bis-(3,4,5-trihydroxybenzoate)] | 30 | 58 | 44 | 38 | 43 | 38 | 66 | 43 | 51 | 43 | 22 | 32 | 35 |
| – | – | – | O=C(O[C@@H]1CCCC[C@H]1OC(=O)c1cc(O)c(O)c(O)c1)c1cc(O)c(O)c(O)c1 (stereo in doubt) [DLT34, R,R-trans-cyclohexane 1,2-diyl bis-(3,4,5-trihydroxybenzoate)] | 32 | 28 | 68 | 91 | 37 | 31 | 45 | 41 | 28 | 34 | 0.3 | 24 | 37 |
| 48 | 58 | – | COc1cc(C(=O)OCc2ccccc2COC(=O)c2ccc(O)c(OC)c2)ccc1O [DLT24, [2-[(4-hydroxy-3-methoxy-benzoyl)oxymethyl]phenyl]methyl 4-hydroxy-3-methoxy-benzoate] | – | – | – | – | – | – | – | 53 ± 2 | – | – | – | – | – |
| 81 | 51 | – | COc1cc(C(=O)OCc2cccc(COC(=O)c3ccc(O)c(OC)c3)c2)ccc1O [DLT25, [3-[(4-hydroxy-3-methoxy-benzoyl)oxymethyl]phenyl]methyl 4-hydroxy-3-methoxy-benzoate] | – | – | – | – | – | – | – | 52 ± 5 | – | – | – | – | – |
| > 100 | > 100 | – | COc1ccc(C(=O)OCCCCCCOC(=O)c2ccc(OC)c(OC)c2)cc1OC [DLT26, 6-(3,4-dimethoxybenzoyl)oxyhexyl 3,4-dimethoxybenzoate] | – | – | – | – | – | – | – | > 100 | – | – | – | – | – |
| > 100 | > 100 | > 100 | COc1cc(C(=O)OC/C=C/COC(=O)c2ccc(O)c(OC)c2)ccc1O [DLT27, 1,4-oxybut-2-enyl-bis(4-hydroxy-3-methoxybenzoate)] | – | – | – | – | – | – | – | > 100 | – | – | – | – | – |
| 42 | 60 | – | COc1cc(C(=O)OCC#CCOC(=O)c2ccc(O)c(OC)c2)ccc1O [DLT28, 1,4-oxybut-2-ynyl bis(4-hydroxy-3-methoxybenzoate)] | – | – | – | – | – | – | – | 50 ± 4 | – | – | – | – | – |
| 74 | 82 | – | COc1ccc(C(=O)OCCCCCCOC(=O)c2ccc(OC)c(O)c2)cc1O [DLT29, 6-(3-hydroxy-4-methoxy-benzoyl)oxyhexyl 3-hydroxy-4-methoxy-benzoate] | – | – | – | – | – | – | – | > 100 | – | – | – | – | – |
